Results from patent US20250122207A1, “AP2 ASSOCIATED KINASE 1 INHIBITORS AND USES THEREOF” (Satellos Bioscience Inc., priority 2023, published 2025).
pIC50: −log10 of the molar value. Where two headings read alike, the source gives them in different places.

Tests used:
[1] = target: T1, BIKE (amino acids S38-E345) (K320A, K321A) (Homo sapiens, UniProt Q9NSY1, K320A/K321A); experiment: BIKE pSENs assay; format: biochemical
T1 construct: against BIKE (amino acids S38-E345) (K320A, K321A); 6His (N, cleaved yes)
Method: (§1) The recombinant proteins were independently expressed in Escherichia coli BL21(DE3) cells cultured in Luria-Bertani (LB) medium until OD600 reached 0.6-0.8, then cooled to 15° C. and supplemented with 0.5 mM isopropyl 1-thio-D-galactopyranoside (IPTG) induce protein expression 16 h. Cells were harvested and resuspended in lysis buffer (50 mM HEPES pH 7.5, 500 mM NaCl, 5 mM imidazole, 5% glycerol, 0.5 mM Tris (2-carboxyethyl) phosphine (TCEP), cOmplete Protease Inhibitor Tablet (Roche)) and lysed by microfludics high pressure homogenizer (UH-06, Union-Biotech). Proteins were purified using […] chromatography (His FF column, Bestchrom) and eluted stepwise in binding buffer with 20-300 mM imidazole. Removal of the hexahistidine tag was performed at 4° C. overnight using recombinant TEV protease and reacted with BirA to obtain the corresponding biotinylated-AAK1, BIKE or GAK proteins. Further separated in the reverse Strep column (Strep-Tactin® XT, IBA). The Biotin elution sample was collected containing untagged biotinylated protein was then purified by Ion-exchange chromatography (Mono Q 10/100 GL, Cytiva) and Size-exclusion chromatography (HiLoad 16/600 Superdex 200 pg, Cytiva). The pure protein was stored in a storage buffer 50 mM HEPES (pH 7.5), 300 mM NaCl, 5% glycerol at −80° C. Protein were characterized by SDS-PAGE, LC-MS and aSEC.
BIKE protein was dissolved at 20 nM in 1× enzyme solution (50 mM HEPES pH7.5, 10 mM MgCl2, 1 mM DTT, 1% glycerol, 0.5 mM EGTA, 0.01% Briji35, 0.02% BSA) and 12.5 ul was incubated with 250 nl DMSO or 250 nl compound in DMSO at 25° C. for 15 min. The reaction was started by addition of 12.5 ul of 30 uM AQT0759 (Assayquant, CSKS-AQT0759B) and 40 uM ATP which were diluted in 1× substrate dilution buffer (50 mM HEPES pH7.5, 10 mM MgCl2, 1 mM DTT, 1% glycerol, 0.5 mM EGTA, 0.01% Briji35).

[2] = target: T2, GAK (amino acids Q25-N335) (Homo sapiens, UniProt O14976); experiment: GAK pSENs assay; format: biochemical
T2 construct: against GAK (amino acids Q25-N335); 6His (N, cleaved yes)
T2 sequence (O14976 25-335): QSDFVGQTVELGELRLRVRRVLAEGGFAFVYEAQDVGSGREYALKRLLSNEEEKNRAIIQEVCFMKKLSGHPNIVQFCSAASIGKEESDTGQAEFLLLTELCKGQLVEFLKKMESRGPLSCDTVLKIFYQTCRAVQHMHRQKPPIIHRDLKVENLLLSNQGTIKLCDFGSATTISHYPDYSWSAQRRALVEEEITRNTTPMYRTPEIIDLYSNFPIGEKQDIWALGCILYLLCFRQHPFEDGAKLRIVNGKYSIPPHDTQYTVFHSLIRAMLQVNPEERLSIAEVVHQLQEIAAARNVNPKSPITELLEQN
Method: as §1
This example describes one illustrative method for determining the IC50 of the compounds of the present invention against GAK (amino acids Q25-N335).

AAK1 = AAK1 (Homo sapiens, UniProt Q2M2I8); experiment: pAP2M1 cell-based assay (in-cell Western); settings: Hela cells co-transfected with AP2M1 and AAK1, 3 hr treatment; class symbols; read-out: AAK1 In-cell Western: IC50
Text: pAP2M1 Cell-Based Assay (in-Cell Western):
The plate was read on Licor Odyssey CLx imaging system (LICOR) to acquire fluorescence intensity at 700 channel and 800 channel.
Data analysis: Fluorescence intensity at 700 channel served as internal standard and 800 channel were normalized with 700 channel.

[3] = target: T3, AAK1 (amino acids T27-A365) (Homo sapiens, UniProt Q2M2I8); experiment: AAK1 pSENs assay; format: biochemical; settings: class symbols; read-out: AAK1 pSENs: EIC50
T3 construct: against AAK1 (amino acids T27-A365); 6His (N, cleaved yes)
Method in brief: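 Biotinylated, tag-free AAK1 T27-A365 expressed in E. coli was held at 20 nM in enzyme solution (HEPES pH 7.5, 10 mM MgCl2, DTT, EGTA, Brij35, BSA) and preincubated with compound for 15 min at 25 °C. The reaction was started with an equal volume of substrate solution containing 30 uM AQT0759 peptide and 70 uM ATP. IC50 determined.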

[4] = class symbols, read-out: GAK pSENs:IC50
[5] = class symbols, read-out: BIKE pSENs: IC50

AAK1, sequence (Q2M2I8 whole entry): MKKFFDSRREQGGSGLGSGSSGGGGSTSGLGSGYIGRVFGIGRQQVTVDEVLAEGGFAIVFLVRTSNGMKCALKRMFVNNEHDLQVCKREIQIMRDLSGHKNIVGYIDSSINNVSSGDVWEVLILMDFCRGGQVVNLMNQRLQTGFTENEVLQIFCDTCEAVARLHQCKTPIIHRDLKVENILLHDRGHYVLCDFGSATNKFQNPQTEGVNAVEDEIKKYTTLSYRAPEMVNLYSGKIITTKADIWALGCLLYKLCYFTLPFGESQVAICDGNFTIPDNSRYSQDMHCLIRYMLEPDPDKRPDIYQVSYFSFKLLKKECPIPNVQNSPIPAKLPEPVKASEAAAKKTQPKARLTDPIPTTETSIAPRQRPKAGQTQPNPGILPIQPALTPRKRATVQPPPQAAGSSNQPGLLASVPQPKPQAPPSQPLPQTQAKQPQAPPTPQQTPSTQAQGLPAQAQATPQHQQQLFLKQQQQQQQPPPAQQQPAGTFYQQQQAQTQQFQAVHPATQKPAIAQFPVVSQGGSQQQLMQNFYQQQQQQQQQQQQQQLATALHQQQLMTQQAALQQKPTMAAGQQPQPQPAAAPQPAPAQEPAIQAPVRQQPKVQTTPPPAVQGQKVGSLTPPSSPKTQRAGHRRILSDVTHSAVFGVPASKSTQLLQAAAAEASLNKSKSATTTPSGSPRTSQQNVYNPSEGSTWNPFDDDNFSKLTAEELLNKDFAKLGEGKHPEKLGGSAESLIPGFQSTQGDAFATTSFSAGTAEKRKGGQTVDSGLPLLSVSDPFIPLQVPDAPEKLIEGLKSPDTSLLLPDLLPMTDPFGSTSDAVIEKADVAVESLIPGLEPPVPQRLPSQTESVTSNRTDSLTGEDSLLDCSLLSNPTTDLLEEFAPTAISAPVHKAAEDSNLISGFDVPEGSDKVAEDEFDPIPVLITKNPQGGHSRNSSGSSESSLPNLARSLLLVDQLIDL
T3 sequence (Q2M2I8 27-365): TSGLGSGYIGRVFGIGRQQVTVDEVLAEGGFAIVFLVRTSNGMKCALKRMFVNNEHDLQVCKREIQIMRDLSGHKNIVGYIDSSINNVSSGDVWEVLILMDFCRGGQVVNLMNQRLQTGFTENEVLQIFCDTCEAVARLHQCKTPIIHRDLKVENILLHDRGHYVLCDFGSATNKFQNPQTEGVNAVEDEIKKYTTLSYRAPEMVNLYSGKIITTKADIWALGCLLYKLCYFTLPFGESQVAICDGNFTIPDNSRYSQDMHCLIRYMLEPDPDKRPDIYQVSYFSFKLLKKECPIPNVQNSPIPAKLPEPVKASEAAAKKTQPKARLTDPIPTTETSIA
T1 sequence (Q9NSY1 38-345 K320A/K321A): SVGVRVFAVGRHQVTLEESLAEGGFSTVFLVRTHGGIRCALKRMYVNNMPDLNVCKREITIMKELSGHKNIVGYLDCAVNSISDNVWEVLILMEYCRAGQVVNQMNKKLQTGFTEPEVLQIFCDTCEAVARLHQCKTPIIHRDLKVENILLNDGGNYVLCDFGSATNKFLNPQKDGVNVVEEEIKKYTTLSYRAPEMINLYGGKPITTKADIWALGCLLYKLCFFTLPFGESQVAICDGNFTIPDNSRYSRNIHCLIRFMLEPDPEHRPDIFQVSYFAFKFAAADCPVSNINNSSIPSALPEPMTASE

Row | SMILES | pIC50 (AAK1) | pIC50 [3] | pIC50 [2, 4] | pIC50 [1, 5] | pIC50 [1] | pIC50 [2]
1 | COc1ncccc1-c1cnn2ccc(N3CCN(C(=O)OC(C)C)CC3)nc12 [LP-935509] |  |  |  |  | 7.48 | 6.14
2 | O=C(O[C@H]1CO[C@H]2OCC[C@H]21)N1CCN(c2ccn3ncc(-c4cnccn4)c3n2)CC1 [Compound I-66, [(3aS,4R,6aR)-2,3,3a,4,5,6a-hexahydrofuro[2,3-b]furan-4-yl]-4-(3-pyrazin-2-ylpyrazolo[1,5-a]pyrimidin-5-yl)piperazine-1-carboxylate] | 5.82 to 6.30 | 6.30 to 6.82 | 5.82 to 6.30 |  |  | 
3 | O=C1C[C@H](OC(=O)N2CCN(c3ccn4ncc(-c5cccnc5NC5CCC5)c4n3)CC2)CN1 [Compound I-46, [(3S)-5-oxopyrrolidin-3-yl]4-[3-[2-(cyclobutylamino)-3-pyridyl]pyrazolo [1,5-a]pyrimidin-5-yl]piperazine-1-carboxylate] | < 5.82 | < 5.82 | 5.82 to 6.30 |  |  | 
4 | CN1C[C@@H](OC(=O)N2CCN(c3ccn4ncc(-c5cccnc5OC5CC5)c4n3)CC2)CC1=O [Compound I-34, [(3S)-1-methyl-5-oxo-pyrrolidin-3-yl]-4-[3-[2-(cyclopropoxy)-3-pyridyl]pyrazolo[1,5-a]pyrimidin-5-yl]piperazine-1-carboxylate] | 6.30 to 6.82 | 7.30 to 9.00 |  |  | 6.30 to 6.82 | 
5 | CN1C[C@@H](OC(=O)N2CCN(c3nc4c(-c5cccnc5OC5CCCC5)cnn4cc3F)CC2)CC1=O [Compound I-121, [(3S)-1-methyl-5-oxo-pyrrolidin-3-yl]-4-[3-[2-(cyclopentoxy)-3-pyridyl]-6-fluoro-pyrazolo[1,5-a]pyrimidin-5-yl]piperazine-1-carboxylate] | < 5.82 | 6.82 to 7.29 |  | 5.82 to 6.30 |  | 
6 | CC1(OC(=O)N2CCN(c3ccn4ncc(-c5cccnc5OCC5COC5)c4n3)CC2)COC1 [Compound I-20] | < 5.82 | 6.30 to 6.82 | 5.82 to 6.30 |  |  | 
7 | CN1C[C@@H](OC(=O)N2CCN(c3nc4c(-c5cccnc5OC5CCOC5)cnn4cc3F)CC2)CC1=O (stereo partly drawn) [Compound I-120, [(3S)-1-methyl-5-oxo-pyrrolidin-3-yl]4-[6-fluoro-3-(2-tetrahydrofuran-3-yloxy-3-pyridyl)pyrazolo[1,5-a]pyrimidin-5-yl]piperazine-1-carboxylate] | < 5.82 | 6.82 to 7.29 |  | 6.30 to 6.82 |  | 
8 | COc1ncccc1-c1cnn2ccc(N3CCN(C(=O)OC4CNC(=O)C4)CC3)nc12 (stereo not shown) [Compound I-6, (5-Oxopyrrolidin-3-yl) 4-[3-(2-methoxy-3-pyridyl)pyrazolo[1,5-a]pyrimidin-5-yl]piperazine-1-carboxylate] | 5.82 to 6.30 | 7.30 to 9.00 |  | 7.30 to 9.00 |  | 
9 | O=C1C[C@H](OC(=O)N2CCN(c3ccn4ncc(-c5cccnc5OC5CC5)c4n3)CC2)CN1 [Compound I-11, [(3S)-5-Oxopyrrolidin-3-yl]-4-[3-[2-(cyclopropoxy)-3-pyridyl]pyrazolo[1,5-a]pyrimidin-5-yl]piperazine-1-carboxylate hydrochloric acid] | 6.30 to 6.82 | 7.30 to 9.00 |  | 6.30 to 6.82 |  | 
10 | CC(C)(C)OC(=O)N1CC(Oc2ncccc2-c2cnn3ccc(N4CCN(C(=O)O[C@@H]5CNC(=O)C5)CC4)nc23)C1 [Compound I-42] | 5.82 to 6.30 | 7.30 to 9.00 |  | 6.30 to 6.82 |  | 
11 | O=C1C[C@@H](OC(=O)N2CCN(c3ccn4ncc(-c5cccnc5OC5CC5)c4n3)CC2)CN1 [Compound I-10, [(3R)-5-Oxopyrrolidin-3-yl]-4-[3-[2-(cyclopropoxy)-3-pyridyl]pyrazolo[1,5-a]pyrimidin-5-yl]piperazine-1-carboxylate] | 5.82 to 6.30 | 7.30 to 9.00 |  | 6.30 to 6.82 |  | 
12 | CN1C[C@@H](OC(=O)N2CCN(c3nc4c(-c5cccnc5OC5CCOCC5)cnn4cc3F)CC2)CC1=O [Compound I-122, [(3S)-1-methyl-5-oxo-pyrrolidin-3-yl]4-[6-fluoro-3-(2-tetrahydropyran-4-yloxy-3-pyridyl)pyrazolo[1,5-a]pyrimidin-5-yl]piperazine-1-carboxylate] | 5.82 to 6.30 | 6.82 to 7.29 |  | 6.30 to 6.82 |  | 

Further lines, with some results ahead:

Row | pIC50 (AAK1) | pIC50 [3] | pIC50 [2, 4] | pIC50 [1, 5] | SMILES | pIC50 [1] | pIC50 [2]
13 | < 5.82 | 6.82 to 7.29 | 5.82 to 6.30 |  | CC(C)Oc1ncccc1-c1cnn2ccc(N3CCN(C(=O)O[C@@]4(C)CCNC4)CC3)nc12 [Compound I-21, [(3S)-3-Methylpyrrolidin-3-yl]4-[3-(2-isopropoxy-3-pyridyl)pyrazolo[1,5-a]pyrimidin-5-yl]piperazine-1-carboxylate] |  | 
14 |  |  | 6.30 to 6.82 | 6.82 to 7.29 | CC1(OC(=O)N2CCN(c3ccn4ncc(-c5cccnc5OC5CC5)c4n3)CC2)CCNC1 (stereo not shown) [Compound I-13-5, (3-Methylpyrrolidin-3-yl) 4-[3-[2-(cyclopropoxy)-3-pyridyl]pyrazolo[1,5-a]pyrimidin-5-yl]piperazine-1-carboxylate] |  | 
15 | < 5.82 | 6.82 to 7.29 | 5.82 to 6.30 |  | C[C@@]1(OC(=O)N[C@H]2CCN(c3ccn4ncc(-c5cccnc5OC5CC5)c4n3)C2)CCNC1 [Compound I-57, (R)-3-methylpyrrolidin-3-yl ((S)-1-(3-(2-cyclopropoxypyridin-3-yl)pyrazolo[1,5-a]pyrimidin-5-yl)pyrrolidin-3-yl)carbamate] |  | 
16 | 6.30 to 6.82 | 7.30 to 9.00 |  | 5.82 to 6.30 | C[C@@]1(OC(=O)N2CCN(c3ccn4ncc(-c5cccnc5OC5CC5)c4n3)CC2)CCN(CCO)C1 [Compound I-52, [(3R)-1-(2-hydroxyethyl)-3-methyl-pyrrolidin-3-yl]-4-[3-[2-(cyclopropoxy)-3-pyridyl]pyrazolo[1,5-a]pyrimidin-5-yl]piperazine-1-carboxylate] |  | 
17 | < 5.82 | 7.30 to 9.00 |  | 6.30 to 6.82 | O=C1C[C@H](OC(=O)N2CCN(c3ccn4ncc(-c5cccnc5OC5COC5)c4n3)CC2)CN1 [Compound I-25, [(3S)-5-Oxopyrrolidin-3-yl]4-[3-[2-(oxetan-3-yloxy)-3-pyridyl]pyrazolo[1,5-a]pyrimidin-5-yl]piperazine-1-carboxylate] |  | 
18 | < 5.82 | 6.82 to 7.29 |  | 5.82 to 6.30 | CC(C)N1C[C@@H](OC(=O)N2CCN(c3ccn4ncc(-c5cccnc5OC5CC5)c4n3)CC2)CC1=O [Compound I-114, [(3S)-1-isopropyl-5-oxo-pyrrolidin-3-yl]-4-[3-[2-(cyclopropoxy)-3-pyridyl]pyrazolo[1,5-a]pyrimidin-5-yl]piperazine-1-carboxylate] |  | 
19 | 5.82 to 6.30 | 7.30 to 9.00 |  | 6.82 to 7.29 | CNCCN1C[C@@H](OC(=O)N2CCN(c3ccn4ncc(-c5cccnc5OC5CC5)c4n3)CC2)CC1=O [Compound I-36, (S)-1-(2-(methylamino)ethyl)-5-(oxopyrrolidin-3-yl)-4-(3-(2-cyclopropoxypyridin-3-yl)pyrazolo[1,5-a]pyrimidin-5-yl)piperazine-1-carboxylate] |  | 
